In ChEMBL document CHEMBL3046636, “Synthesis and anti-juvenile hormone activity of ethyl 4-(2-aryloxyhexyloxy)benzoates” (2006):
The source made the active and inactive calls. The rule behind the calls is not given here.

Key:
Bombyx mori [1] = assay: Induction of precocious metamorphosis in newly molted fourth-instar larvae of Bombyx mori assessed as precocious metamorphosis measured after topical treatment; format: functional, organism-based
Bombyx mori [2] = assay: Induction of precocious metamorphosis in 24 hr old third-instar larvae of Bombyx mori assessed as precocious metamorphosis at 10 ug/larva topically by antijuvenile hormone activity assay; format: functional
Bombyx mori [3] = assay: Induction of precocious metamorphosis in 24 hr old third-instar larvae of Bombyx mori assessed as precocious metamorphosis at 1 ug/larva topically by antijuvenile hormone activity assay; format: functional
Bombyx mori [4] = assay: Induction of precocious metamorphosis in 24 hr old third-instar larvae of Bombyx mori assessed as precocious metamorphosis at 40 ug/larva topically by antijuvenile hormone activity assay; format: functional
Bombyx mori [5] = assay: Induction of precocious metamorphosis in 24 hr old third-instar larvae of Bombyx mori assessed as precocious metamorphosis at 200 ppm dietary administration by antijuvenile hormone activity assay; format: functional
Bombyx mori [6] = assay: Induction of precocious metamorphosis in 24 hr old third-instar larvae of Bombyx mori assessed as precocious metamorphosis at 50 ppm dietary administration by antijuvenile hormone activity assay; format: functional

SMILES	Activity (Bombyx mori [1])	Activity (Bombyx mori [2]) [%]	Activity (Bombyx mori [3]) [%]	Activity (Bombyx mori [4]) [%]	Activity (Bombyx mori [5]) [%]	Activity (Bombyx mori [6]) [%]
CCCCC(COc1ccc(C(=O)OCC)cc1)Oc1ccc(Cl)cc1 (stereo not given)	inactive	30	0	–	–	–
CCCCC(COc1ccc(C(=O)OCC)cc1)Oc1cccc(Cl)c1 (stereo not given)	inactive	45	25	75	–	–
CCCCC(COc1ccc(C(=O)OCC)cc1)Oc1ccccc1 (stereo not given)	inactive	66	32	70	75	25
CCCCC(COc1ccc(C(=O)OCC)cc1)Oc1ccc(C)nc1 (stereo not given)	inactive	20	20	75	–	–
CCCCC(COc1ccc(C(=O)OCC)cc1)Oc1ccccc1Cl (stereo not given)	inactive	0	0	–	–	–
CCCCC(COc1ccc(C(=O)OCC)cc1)Oc1cccc(C)c1 (stereo not given)	inactive	5	0	55	–	–
CCCCC(COc1ccc(C(=O)O)cc1)Oc1ccccc1 (stereo not given)	–	–	–	–	0	0
CCCCC(COc1ccc(C(=O)OCC)cc1)Oc1ccccc1C (stereo not given)	inactive	10	0	–	–	–
CCCCC(COc1ccc(C(=O)OCC)cc1)Oc1cccnc1 (stereo not given)	inactive	47	10	57	–	–
CCCCC(COc1ccc(C(=O)OCC)cc1)Oc1ccncc1 (stereo not given)	inactive	0	0	–	–	–
CCCCC(COc1ccc(C(=O)OCC)cc1)Oc1ccc(C)cc1 (stereo not given)	inactive	45	5	58	–	–
